Laboratory results: patent US12295939B2, “Substituted benzothiophene analogs as selective estrogen receptor degraders” (The Board of Trustees of the University of Illinois, priority 2018, dated 2025)

Legend:
[1] = test system: tamoxifen-sensitive ER+ MCF-7:WS8 breast cancer cells; assay: Growth inhibition in tamoxifen-sensitive ER+ MCF-7:WS8 breast cancer cells; assay type: cell-based; details: MCF7:WS8, MCF-7:WS8 cells; for IC50: assayed from 0.01 nM to 1 uM; for Emax: read-out: MCF7:WS8 Max efficacy (%)
[2] = test system: tamoxifen-resistant MCF-7:5C breast cancer cells; assay: Growth inhibition in tamoxifen-resistant MCF-7:5C breast cancer cells; assay type: cell-based; details: MCF7:5C, MCF-7:5C cells; for IC50: assayed from 0.01 nM to 1 uM; for Emax: read-out: MCF7:5C Max efficacy (%)
ER = biological target: T1, ER (Homo sapiens, UniProt P03372); assay: Relative binding affinity (RBA)
T1 construct: endogenous in cells
T1 sequence (P03372 1-595): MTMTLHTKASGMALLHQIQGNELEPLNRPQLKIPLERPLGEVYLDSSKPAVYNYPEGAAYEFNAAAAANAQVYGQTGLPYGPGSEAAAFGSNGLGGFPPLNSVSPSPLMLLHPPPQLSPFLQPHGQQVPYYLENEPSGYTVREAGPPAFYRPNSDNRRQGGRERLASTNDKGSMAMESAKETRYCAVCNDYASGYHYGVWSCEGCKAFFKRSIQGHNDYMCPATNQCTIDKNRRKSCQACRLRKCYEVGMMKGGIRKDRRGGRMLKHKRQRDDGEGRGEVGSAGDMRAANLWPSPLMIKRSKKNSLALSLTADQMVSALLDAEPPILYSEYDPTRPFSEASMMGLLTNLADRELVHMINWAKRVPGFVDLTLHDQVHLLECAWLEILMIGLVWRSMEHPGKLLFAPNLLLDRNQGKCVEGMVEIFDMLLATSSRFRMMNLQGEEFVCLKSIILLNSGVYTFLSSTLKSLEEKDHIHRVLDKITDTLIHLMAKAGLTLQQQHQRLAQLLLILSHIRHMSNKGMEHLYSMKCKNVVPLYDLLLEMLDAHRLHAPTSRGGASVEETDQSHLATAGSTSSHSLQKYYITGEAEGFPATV
Procedure: (§1) Example compounds were assayed to determine ER downregulation, relative binding affinity, and ER antagonism.

ER (ERE) = assay: ER antagonism (ERE); assay type: cell-based
Procedure: as §1

Cc1cc(F)cc(C)c1C(=O)c1sc2cc(O)ccc2c1Oc1ccc(OC2CN(C3CC3)C2)cc1 [Compound 67, (3-(4-((1-cyclopropylazetidin-3-yl)oxy)phenoxy)-6-hydroxybenzo[b]thiophen-2-yl)(4-fluoro-2,6-dimethylphenyl) methanone]
IC50 [1]: 0.42 ± 0.04 nM | Emax [1]: 65% | IC50 [2]: 1 ± 0.8 nM | Emax [2]: 20%

Cc1ccccc1C(=O)c1sc2cc(O)ccc2c1Oc1ccc(OCCN2CC(CF)C2)cc1 [Compound 8, (3-(4-(2-(3-(fluoromethyl)azetidin-1-yl)ethoxy)phenoxy)-6-hydroxybenzo[b]thiophen-2-yl)(o-tolyl)methanone]
RBA (%) (ER): 46.5 ± 7% | IC50 [1]: 0.73 ± 0.02 nM | Emax [1]: 70% | IC50 [2]: 0.65 ± 0.03 nM | Emax [2]: 40% | IC50 (ER (ERE)): 1.5 ± 0.09 nM

Cc1ccccc1C(=O)c1sc2cc(O)ccc2c1Oc1ccc(OCCN2CCC2)cc1 [Compound 59, (3-(4-(2-(azetidin-1-yl)ethoxy)phenoxy)-6-hydroxybenzo[b]thiophen-2-yl)(o-tolyl)methanone]
IC50 [1]: 0.5 ± 0.05 nM | Emax [1]: 70% | IC50 [2]: 0.31 ± 0.07 nM | Emax [2]: 35%

O=C(c1cccc(F)c1)c1sc2cc(O)ccc2c1Oc1ccc(OC2CN(CCCF)C2)cc1 [Compound 66, (3-fluorophenyl)(3-(4-((1-(3-fluoropropyl)azetidin-3-yl)oxy)phenoxy)-6-hydroxybenzo[b]thiophen-2-yl)methanone]
IC50 [1]: 0.27 ± 0.006 nM | Emax [1]: 70% | IC50 [2]: 0.12 ± 0.03 nM | Emax [2]: 35%

Cc1cc(F)cc(C)c1C(=O)c1sc2cc(O)ccc2c1Oc1ccc(OC2CN(CCCF)C2)cc1 [Compound 17, (4-fluoro-2,6-dimethylphenyl)(3-(4-((1-(3-fluoropropyl)azetidin-3-yl)oxy)phenoxy)-6-hydroxybenzo[b]thiophen-2-yl)methanone]
IC50 [1]: 0.55 ± 0.01 nM | Emax [1]: 75% | IC50 [2]: 0.15 ± 0.06 nM | Emax [2]: 70%

C[C@]12CC[C@@H]3c4ccc(O)cc4C[C@@H](CCCCCCCCC[S+]([O-])CCCC(F)(F)C(F)(F)F)[C@H]3[C@@H]1CC[C@@H]2O (some centres unmarked) [Fulvestrant, fulvestrant, reference compound]
IC50 [1]: 0.48 ± 0.03 nM | Emax [1]: 75% | IC50 [2]: 1.9 ± 0.01 nM | Emax [2]: 55% | IC50 (ER (ERE)): […]

Cc1ccc(C(=O)c2sc3cc(O)ccc3c2Oc2ccc(OCCN3CC(CF)C3)cc2)c(C)c1 [Compound 63, (2,4-dimethylphenyl)(3-(4-(2-(3-(fluoromethyl)azetidin-1-yl)ethoxy)phenoxy)-6-hydroxybenzo[b]thiophen-2-yl)methanone]
IC50 [1]: 0.47 ± 0.009 nM | Emax [1]: 65% | IC50 [2]: 0.56 ± 0.005 nM | Emax [2]: 50% | IC50 (ER (ERE)): 7.4 ± 0.3 nM

O=C(c1ccc(F)cc1)c1sc2cc(O)ccc2c1Oc1ccc(OCCN2CC(CF)C2)cc1 [Compound 61, (3-(4-(2-(3-(fluoromethyl)azetidin-1-yl)ethoxy)phenoxy)-6-hydroxybenzo[b]thiophen-2-yl)(4-fluorophenyl) methanone]
RBA (%) (ER): 9.15 ± 0.9% | IC50 [1]: 1.3 ± 0.1 nM | Emax [1]: 70% | IC50 [2]: 0.58 ± 0.04 nM | Emax [2]: 55% | IC50 (ER (ERE)): 2.8 ± 0.1 nM

Cc1cc(F)cc(C)c1C(=O)c1sc2cc(O)ccc2c1Oc1ccc(OCCN2CC[C@H](CF)C2)cc1 [Compound 64, (S)-(4-fluoro-2,6-dimethylphenyl)(3-(4-(2-(3-(fluoromethyl)pyrrolidin-1-yl)ethoxy)phenoxy)-6-hydroxybenzo[b]thiophen-2-yl)methanone]
IC50 [1]: 0.36 ± 0.001 nM | Emax [1]: 70% | IC50 [2]: 0.16 ± 0.1 nM | Emax [2]: 50% | IC50 (ER (ERE)): 0.05 ± 0.001 nM

Cc1cc(F)cc(C)c1C(=O)c1sc2cc(O)ccc2c1Oc1ccc(OCCN2CC(CF)C2)cc1 [Compound 5, (4-fluoro-2,6-dimethylphenyl)(3-(4-(2-(3-(fluoromethyl)azetidin-1-yl)ethoxy)phenoxy)-6-hydroxybenzo[b]thiophen-2-yl)methanone]
IC50 [1]: 0.41 ± 0.01 nM | Emax [1]: 70% | IC50 [2]: 3.4 ± 0.5 nM | Emax [2]: 55% | IC50 (ER (ERE)): 3.5 ± 0.06 nM

Cc1cc(O)ccc1C(=O)c1sc2cc(O)ccc2c1Oc1ccc(OCCN2CC(CF)C2)cc1 [Compound 2, (3-(4-(2-(3-(fluoromethyl)azetidin-1-yl)ethoxy)phenoxy)-6-hydroxybenzo[b]thiophen-2-yl)(4-hydroxy-2-methylphenyl) methanone]
IC50 [1]: 0.5 ± 0.05 nM | Emax [1]: 80% | IC50 [2]: 7.9 ± 0.15 nM | Emax [2]: 45%

Cc1cccc(C)c1C(=O)c1sc2cc(O)ccc2c1Oc1ccc(OCCN2CC[C@@H](CF)C2)cc1 [Compound 9, (R)-(2,6-dimethylphenyl)(3-(4-(2-(3-(fluoromethyl)pyrrolidin-1-yl)ethoxy)phenoxy)-6-hydroxybenzo[b]thiophen-2-yl)methanone]
IC50 [1]: 0.1 ± 0.01 nM | Emax [1]: 85% | IC50 [2]: 0.23 ± 0.06 nM | Emax [2]: 25% | IC50 (ER (ERE)): 45 ± 15 nM

O=C(c1ccccc1)c1sc2cc(O)ccc2c1Oc1ccc(OCCN2CC(CF)C2)cc1 [Compound 3, (3-(4-(2-(3-(fluoromethyl)azetidin-1-yl)ethoxy)phenoxy)-6-hydroxybenzo[b]thiophen-2-yl)(phenyl)methanone]
RBA (%) (ER): 30.7 ± 7% | IC50 [1]: 0.55 ± 0.01 nM | Emax [1]: 65% | IC50 [2]: 15 ± 4 nM | Emax [2]: 60% | IC50 (ER (ERE)): 4.3 ± 0.1 nM

O=C(c1ccc(O)cc1)c1sc2cc(O)ccc2c1Oc1ccc(OCCN2CC(CF)C2)cc1 [Compound 1, (3-(4-(2-(3-(fluoromethyl)azetidin-1-yl)ethoxy)phenoxy)-6-hydroxybenzo[b]thiophen-2-yl)(4-hydroxyphenyl) methanone]
IC50 [1]: 1.1 ± 0.1 nM | Emax [1]: 75% | IC50 [2]: 1.2 ± 0.3 nM | Emax [2]: 30% | IC50 (ER (ERE)): 6.4 ± 0.4 nM

Cc1ccccc1C(=O)c1sc2cc(O)ccc2c1Oc1ccc(OCCN2CCCCC2)cc1 [Compound 65, (6-hydroxy-3-(4-(2-(piperidin-1-yl)ethoxy)phenoxy)benzo[b]thiophen-2-yl)(o-tolyl)methanone]
RBA (%) (ER): 91.8 ± 6% | IC50 [1]: 0.39 ± 0.05 nM | Emax [1]: 65% | IC50 [2]: > 1000 nM | IC50 (ER (ERE)): 2.1 ± 0.06 nM

Cc1ccccc1C(=O)c1sc2cc(O)ccc2c1Oc1ccc(OC2CN(CCCF)C2)cc1 [Compound 20, (3-(4-((1-(3-fluoropropyl)azetidin-3-yl)oxy)phenoxy)-6-hydroxybenzo[b]thiophen-2-yl)(o-tolyl)methanone]
RBA (%) (ER): 27.8 ± 8% | IC50 [1]: 0.04 ± 0.006 nM | Emax [1]: 75% | IC50 [2]: 4.9 ± 0.2 nM | Emax [2]: 70% | IC50 (ER (ERE)): 5.3 ± 0.08 nM

Cc1cc(F)ccc1C(=O)c1sc2cc(O)ccc2c1Oc1ccc(OC2CN(CCCF)C2)cc1 [Compound 16, (4-fluoro-2-methylphenyl)(3-(4-((1-(3-fluoropropyl)azetidin-3-yl)oxy)phenoxy)-6-hydroxybenzo[b]thiophen-2-yl)methanone]
RBA (%) (ER): 38.1 ± 9% | IC50 [1]: 0.15 ± 0.02 nM | Emax [1]: 70% | IC50 [2]: 0.95 ± 0.04 nM | Emax [2]: 50% | IC50 (ER (ERE)): 11 ± 0.5 nM

O=C(c1ccccc1)c1sc2cc(O)ccc2c1Oc1ccc(OC2CN(CCCF)C2)cc1 [Compound 15, (3-(4-((1-(3-fluoropropyl)azetidin-3-yl)oxy)phenoxy)-6-hydroxybenzo[b]thiophen-2-yl)(phenyl)methanone]
IC50 [1]: 0.15 ± 0.02 nM | Emax [1]: 60% | IC50 [2]: 0.12 ± 0.02 nM | Emax [2]: 40% | IC50 (ER (ERE)): 5.2 ± 0.06 nM

Cc1cc(F)cc(C)c1C(=O)c1sc2cc(O)ccc2c1Oc1ccc(OCCN2CC[C@@H](CF)C2)cc1 [Compound 35, (R)-(4-fluoro-2,6-dimethylphenyl)(3-(4-(2-(3-(fluoromethyl)pyrrolidin-1-yl)ethoxy)phenoxy)-6-hydroxybenzo[b]thiophen-2-yl)methanone]
IC50 [1]: 0.56 ± 0.01 nM | Emax [1]: 65% | IC50 [2]: 0.28 ± 0.07 nM | Emax [2]: 40% | IC50 (ER (ERE)): 12 ± 2 nM

Cc1ccccc1C(=O)c1sc2cc(O)ccc2c1Oc1ccc(OCCN2CC(C)C2)cc1 [Compound 60, (6-hydroxy-3-(4-(2-(3-methylazetidin-1-yl)ethoxy)phenoxy)benzo[b]thiophen-2-yl)(o-tolyl)methanone]
IC50 [1]: 0.02 ± 0.004 nM | Emax [1]: 75% | IC50 [2]: 0.65 ± 0.01 nM | Emax [2]: 55% | IC50 (ER (ERE)): 1.9 ± 0.06 nM

O=C(c1cccc(F)c1)c1sc2cc(O)ccc2c1Oc1ccc(OCCN2CC(CF)C2)cc1 [Compound 62, (3-(4-(2-(3-(fluoromethyl)azetidin-1-yl)ethoxy)phenoxy)-6-hydroxybenzo[b]thiophen-2-yl)(3-fluorophenyl) methanone]
RBA (%) (ER): 120 ± 13% | IC50 [1]: 0.28 ± 0.03 nM | Emax [1]: 75% | IC50 [2]: 1.4 ± 0.2 nM | Emax [2]: 60%

Cc1cc(F)ccc1C(=O)c1sc2cc(O)ccc2c1Oc1ccc(OCCN2CC(CF)C2)cc1 [Compound 4, (4-fluoro-2-methylphenyl)(3-(4-(2-(3-(fluoromethyl)azetidin-1-yl)ethoxy)phenoxy)-6-hydroxybenzo[b]thiophen-2-yl)methanone]
IC50 [1]: 0.3 ± 0.02 nM | Emax [1]: 75% | IC50 [2]: 0.2 ± 0.02 nM | Emax [2]: 50% | IC50 (ER (ERE)): 2.7 ± 0.09 nM
